Data published in patent publication US6797723B1, “Heterocycle substituted diphenyl leukotriene antagonists” (Eli Lilly and Company, priority 1999, dated 2004).
“And” between values parts separate entries of the source, which are not always exact repeats. Identical values can stand only once. Counter-ions that a name gives are not always drawn. Like-named read-outs stand apart in the source and are kept apart here.

Tests used:
[1] = tested on: LTB4-mediated CD11b upregulation on human neutrophils; experiment: LTB4-mediated CD11b upregulation on human neutrophils (flow cytometry, anti-CD11b-FITC); format: cell-based
Description: The following Assay method was used to evaluate the effects of 3 compounds for LTB4-mediated CD11b upregulation on human neutrophils:
Note: The Assay procedure described herein was modeled after a previously published method(viz., Prostaglandins, Leukot, Essent. Fatty Acids. 46:265-270. 1992, Biochem. Pharmacol. 49:1683-1690. 1995), the disclosure of which is incorporated herein by reference.
Approximately 1-2 mg of each compound was weighed and diluted to 1 mM in neat dimethyl sulphoxide (DMSO). These stocks were then diluted (using “doubling” dilutions) in assay buffer.
The assay buffer used throughout the studies consisted of Hanks Balanced Salts Solution (HBSS) with added 0.5% bovine serum albumin, low endotoxin (ICN Biomedicals Catalog #16-980-49). After dissolving the BSA in the HBSS, the buffer was membrane-filtered (0.2 μ) before use.
Human blood was drawn into 3×10 ml EDTA-K3 Vacutainer tubes, which were pooled and mixed in a 50 ml, blue cap polypropylene tube. Three ml portions of Mono-Poly Resolving medium (MPRM; ICN #16-980-49) were dispensed into 4 separate 13×100 glass disposable tubes. An additional 0.3 ml of PBS (phosphate buffered saline) was added to each tube and mixed with the MPRM by vigorous vortexing. Exactly 3.5 ml of the blood was carefully layered on top of the four MPRM-water mixtures. The tubes were gradually accelerated to 400×g and spun at this speed for 30 min at room temperature. Tubes were removed from the centrifuge and both the plasma and top cell (mononuclear) layers were removed and discarded. The second layer of cells was carefully collected, pooled and washed with assay buffer. The collected neutrophil cell preparation was then spun at 400×g for 5 min and re-washed once again. The cells were resuspended in assay buffer and counted using a Cell-Dyn 1600 cell counter (Abbott Diagnostics Co.). They were then resuspended in buffer at 9×10^6 cells/ml and held briefly for addition in a later step of the assay.
LTB4, (Biomol; ETOH stock @148.5 μM) was diluted to a 3.9 μM stock in assay buffer by dilution of 10 μl ETOH stock+371 μl assay buffer, mixed well and further diluted 1:100 (100 μl+9.9 ml buffer) to make a use stock of 39 nm in buffer for later use. The final concentration of LTB4 (3 nM) was determined after several experimental runs.
Exactly 10 μl of each putative compound/dilution and 10 μl of anti-CD11b-FITC (FITC=Fluorescein Isothiocyanate; Biosource Intl., #AHS1148) was carefully added to the bottom of 12×75 mm polypropylene tubes (Falcon #2063) as determined by the experimental design. Following this, 100 μl of the human neutrophil preparation (9E6/ml) was added and mixed well by vortexing. The compound/cell mixtures were incubated together for 15 minutes at room temperature. Following this incubation, 10 μl of diluted LTB4 stock was added (to make 3 nM final LTB4 concentration), mixed by vortexing and incubated in a 37° C. shaking water bath for 30 min. Following this the tubes were immediately placed on ice for 10 minutes. Following this 1 ml of diluted BD FACS Lyse (Becton Dickinson Fluorescense Activated Cell Sorting Lyse) was added to the tubes and vortexed. 10 minutes later the tubes were spun at 400×g at room temperature. After centrifugation, the tubes were aspirated and re-suspended in 1.0 ml of 1% paraformaldehyde solution.
The samples were then analyzed for fluorescence intensity (linear scale) using an EPICS XL flow cytometer and the “Mo-1 Isolated Neutrophil” protocol.
The mean fluorescence intensity (MFI) for each sample was computed using WinList software and expressed as percentage of maximum MFI.Microsoft Excel and further graphed and analyzed using linear regression.

[2] = Homo sapiens, Neutrophil, isolated human neutrophils, 3 nM LTB4, semicolons separate individual assay determinations, read-out: CD11b/CD18 IC50
[3] = isolated human neutrophils, 3 nM LTB4, semicolons separate individual assay determinations, read-out: CD11b/CD18 IC50
[4] = Homo sapiens, Neutrophil, read-out: CD11b/CD18 IC50 (nM), isolated human neutrophils, 3 nM LTB4, semicolons separate individual assay determinations
[5] = read-out: CD11b/CD18 IC50, isolated human neutrophils, 3 nM LTB4, semicolons separate individual assay determinations, sodium salt

Compound | IC50 [1, 2] | IC50 [1, 3] | also measured
CCCc1c(OCCCOc2cc(O)c(C3CCOC3)cc2CC)cccc1Oc1ccccc1C(=O)[O-].[Na+] (stereo not shown) (hydrate or solvate) [Example 15, 2-(3-{3-[2-Ethyl-5-hydroxy-4-(tetrahydrofuran-3-yl)phenoxy]propoxy}-2-propylphenoxy)benzoic acid sodium salt hemihydrate] |  |  | melting point: 67 to 71 °C
CCCc1c(OCCCOc2cc(O)c(-c3ccsc3)cc2CC)cccc1Oc1ccccc1C(=O)O (hydrate or solvate) [Example 17, 2-{3-[3-(2-Ethyl-5-hydroxy-4-thiophen-3-yl-phenoxy)propoxy]-2-propyl-phenoxy}benzoic acid hydrate] |  |  | melting point: 90 to 95 °C (dec.)
CCCc1c(OCCCOc2cc(O)c(-c3ccc(F)cc3)cc2CC)cccc1Oc1ccccc1C(=O)O [Compound A, reference compound] |  |  | IC50 ([1]; Homo sapiens, Neutrophil, comparison compounds, isolated human neutrophils, 3 nM LTB4, A = average of 3 tests, read-out: IC-50 (nM) ± SEM): 1.7 ± 0.25 nM
CCCc1c(OCCCOc2cc(O)c(-c3ccc(F)cc3)cc2CC)cccc1Oc1ccccc1C#N [Compound B, reference compound] |  |  | IC-50 (nM) ± SEM ([1]; comparison compounds, isolated human neutrophils, 3 nM LTB4, A = average of 3 tests): not active
CCCc1c(OCCCOc2cc(O)c(-c3cocn3)cc2CC)cccc1Oc1ccccc1C(=O)O [Example 1, 2-{3-[3-(2-Ethyl-5-hydroxy-4-oxazol-4-yl-phenoxy)propoxy]-2-propyl-phenoxy}benzoic acid] | 480 nM |  | 
CCCc1c(OCCCOc2cc(O)c(-c3cnc[nH]3)cc2CC)cccc1Oc1ccccc1C(=O)O [Example 2, 2-(3-{3-[2-Ethyl-5-hydroxy-4-(3H-imidazol-4-yl)phenoxy]propoxy}-2-propyl-phenoxy)benzoic acid hydrochloride] | 5880 nM |  | 
CCCc1c(OCCCOc2cc(O)c(-c3cnn[nH]3)cc2CC)cccc1Oc1ccccc1C(=O)O [Example 6] | 260 nM |  | 
CCCc1c(OCCCOc2cc(O)c(-n3cccc3)cc2CC)cccc1Oc1ccccc1C(=O)OC [Example 7, 2-{3-[3-(2-ethyl-5-hydroxy-4-pyrrol-1-yl-phenoxy)propoxy]-2-propyl-phenoxy}benzoic acid methyl ester] | 2020 nM | 3790 nM | 
CCCc1c(OCCCOc2cc(O)c(-c3nc(Br)ns3)cc2CC)cccc1Oc1ccccc1C(=O)O [Example 8, 2-(3-{3-[4-(3-bromo-[1,2,4]thiadiazol-5-yl)-2-ethyl-5-hydroxyphenoxy]propoxy}-2-propylphenoxy)benzoic acid] | > 50000 nM |  | 
CCCc1c(OCCCOc2cc(O)c(-c3cccs3)cc2CC)cccc1Oc1ccccc1C(=O)O [Example 9, 2-{3-[3-(2-Ethyl-5-hydroxy-4-thiophen-2-yl-phenoxy)propoxy]-2-propyl-phenoxy}benzoic acid sodium salt] |  |  | IC50 [1, 4]: 23 nM; IC50 [1, 5]: 20 nM
CCCc1c(OCCCOc2cc(O)c(-c3c(C)noc3C)cc2CC)cccc1Oc1ccccc1C(=O)O [Example 12, 2-(3-{3-[4-(3,5-Dimethylisoxazol-4-yl)-2-ethyl-5-hydroxyphenoxy]propoxy}-2-propylphenoxy)benzoic acid sodium salt] |  |  | IC50 [1, 4]: 10000 nM; IC50 [1, 5]: 5700 nM
CCCc1c(OCCCOc2cc(O)c(-c3ccco3)cc2CC)cccc1Oc1ccccc1C(=O)O [Example 13, 2-{3-[3-(2-Ethyl-4-furan-2-yl-5-hydroxyphenoxy)propoxy]-2-propylphenoxy}-benzoic acid sodium salt] |  |  | IC50 [1, 4]: 39 nM; IC50 [1, 5]: 54 nM
CCCc1c(OCCCOc2cc(O)c(C3CCOC3)cc2CC)cccc1Oc1ccccc1C(=O)O (stereo not shown) [Example 15, 2-(3-{3-[2-Ethyl-5-hydroxy-4-(tetrahydrofuran-3-yl)phenoxy]propoxy}-2-propylphenoxy)benzoic acid sodium salt hemihydrate] |  |  | IC50 [1, 4]: 27 nM
CCCc1c(OCCCOc2cc(O)c(C3CCCN3)cc2CC)cccc1Oc1ccccc1C(=O)O (stereo not shown) [Example 16, 2-{3-[3-(2-Ethyl-5-hydroxy-4-pyrrolidin-2-yl-phenoxy)propoxy]-2-propyl-phenoxy}benzoic acid hydrochloride hydrate] | 1080 nM |  | IC50 ([1]; isolated human neutrophils, 3 nM LTB4, semicolons separate individual assay determinations, hydrochloride hydrate, read-out: CD11b/CD18 IC50): 837 nM

The next lines start with results.

IC50 [1, 2] | IC50 [1, 3] | Compound | also measured
353 nM | 339 nM | CCCc1c(OCCCOc2cc(O)c(-c3cscn3)cc2CC)cccc1Oc1ccccc1C(=O)O [Example 3, 2-{3-[3-(2-Ethyl-5-hydroxy-4-thiazol-4-yl-phenoxy)propoxy]-2-propyl-phenoxy}benzoic acid] | 
74 nM | 117 nM | CCCc1c(OCCCOc2cc(O)c(-c3ccn[nH]3)cc2CC)cccc1Oc1ccccc1C(=O)O [Example 4, 2-(3-{3-[2-Ethyl-5-hydroxy-4-(2H-pyrazol-3-yl)phenoxy]propoxy}-2-propyl-phenoxy)benzoic acid] | 
175 nM | 223 nM | CCCc1c(OCCCOc2cc(O)c(-c3ccno3)cc2CC)cccc1Oc1ccccc1C(=O)O [Example 5, 2-{3-[3-(2-ethyl-5-hydroxy-4-isoxazol-5-yl-phenoxy)propoxy]-2-propylphenoxy}benzoic acid] | 
 | 14 nM and 4.4 nM and 8.3 nM | CCCc1c(OCCCOc2cc(O)c(-c3cnn(C)c3)cc2CC)cccc1Oc1ccccc1C(=O)O [Example 10, 2-(3-{3-[2-ethyl-5-hydroxy-4-(1-methyl-1H-pyrazol-4-yl)-phenoxy]propoxy}-2-propylphenoxy)benzoic acid] | 
 | 620 nM and 2560 nM and 1010 nM | CCCc1c(OCCCOc2cc(O)c(-c3nccs3)cc2CC)cccc1Oc1ccccc1C(=O)O [Example 11, 2-{3-[3-(2-Ethyl-5-hydroxy-4-thiazol-2-yl-phenoxy)propoxy]-2-propyl-phenoxy}benzoic acid] | 
31 nM | 30 nM | CCCc1c(OCCCOc2cc(O)c(-c3ccoc3)cc2CC)cccc1Oc1ccccc1C(=O)O [Example 14] | 
11 nM |  | CCCc1c(OCCCOc2cc(O)c(-c3ccsc3)cc2CC)cccc1Oc1ccccc1C(=O)O [Example 17, 2-{3-[3-(2-Ethyl-5-hydroxy-4-thiophen-3-yl-phenoxy)propoxy]-2-propyl-phenoxy}benzoic acid hydrate] | IC50 ([1]; isolated human neutrophils, 3 nM LTB4, semicolons separate individual assay determinations, hydrate, read-out: CD11b/CD18 IC50): 5.6 nM and 8 nM
